The text below walks through data of patent publication US10617680B2 (CELGENE QUANTICEL RESEARCH, INC., priority 2017, dated 2020).

pIC50: −log10 of the molar value. Like-named read-outs stand apart in the source and are kept apart here.

In the assay the target is CBP (Homo sapiens (Human), UniProt Q92793). Description: In vitro CBP inhibition (AlphaScreen, biotinylated H4-tetraacetyl peptide). Type of assay: binding. The method in brief:
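His-tagged CBP expressed in E. coli (50 nM final) incubated with biotinylated H4K5/8/12/16(Ac) peptide (20 nM final) in 50 mM HEPES pH 7.3, 10 mM NaCl, 0.25 mM TCEP, 0.1% BSA, 0.005% Brij-35, 0.4% DMSO, 20 min at room temp.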

[1] abbreviates: AlphaScreen, Table 29, read-out: CBP IC50.

Chain of CBP (Q92793 1081-1197): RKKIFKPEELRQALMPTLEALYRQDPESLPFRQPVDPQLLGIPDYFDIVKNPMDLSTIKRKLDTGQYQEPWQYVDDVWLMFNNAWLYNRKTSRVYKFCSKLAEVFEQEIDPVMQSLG

The term pIC50 denotes the IC50 on a negative log10 scale, so that one unit is a factor of ten. The compound `Cc1ccccc1-c1cc(=O)n(C)cc1-c1cnn(Cc2ccccc2)c1` [Example 106, 5-(1-benzyl-1H-pyrazol-4-yl)-1-methyl-4-o-tolyl-1H-pyridin-2-one] showed a pIC50 of 5.30 to 6.30. On to `CCOc1cc(=O)n(C)cc1-c1cnn(-c2ccccc2F)c1` [Example 252, 4-ethoxy-5-(1-(2-fluorophenyl)-1H-pyrazol-4-yl)-1-methylpyridin-2(1H)-one], for which the pIC50 under setting [1] was over 6.30.

Take `CNC(=O)c1ccc(-c2cc(=O)n(C)cc2-c2cnn(-c3ccccc3C#N)c2)cc1` [Example 219, 4-{5-[1-(2-Cyano-phenyl)-1H-pyrazol-4-yl]-1-methyl-2-oxo-1,2-dihydro-pyridin-4-yl}-N-methyl-benzamide]: the pIC50 under setting [1] is over 6.30.

As to `CCOC(=O)c1c(-c2cc(C)c(=O)n(C)c2)cnn1Cc1ccccc1` [Example 199, 2-Benzyl-4-(1,5-dimethyl-6-oxo-1,6-dihydro-pyridin-3-yl)-2H-pyrazole-3-carboxylic acid ethyl ester], the pIC50 under setting [1] was over 6.30. Same read-out and setting: under `Cn1cc(-c2cnn(Cc3ccccc3)c2)c(N2CCCC2)cc1=O` [Example 87, 5-(1-benzyl-1H-pyrazol-4-yl)-1-methyl-4-pyrrolidin-1-yl-1H-pyridin-2-one] stands over 6.30.

With `Cn1cc(-c2cnn(-c3cccc(Cl)c3C#N)c2)c(-c2ccc(C(F)(F)F)nc2)cc1=O` [Example 370, 2-chloro-6-(4-(1′-methyl-6′-oxo-6-(trifluoromethyl)-1′,6′-dihydro-[3,4′-bipyridin]-3′-yl)-1H-pyrazol-1-yl)benzonitrile], under setting [1], the pIC50 is over 6.30. As to `Cn1cc(-c2cnn(-c3cccc(F)c3C#N)c2)c(-c2ccc(C3CC3)nc2)cc1=O` [Example 374, 2-[4-[4-(6-cyclopropyl-3-pyridyl)-1-methyl-6-oxo-3-pyridyl]pyrazol-1-yl]-6-fluoro-benzonitrile], under setting [1], the pIC50 is over 6.30. For `Cn1cc(-c2cnn(CC3CC3)c2)c(-c2ccc(C#N)cc2)cc1=O` [Example 156, 4-[5-(1-cyclopropyl-methyl-1H-pyrazol-4-yl)-1-methyl-2-oxo-1,2-dihydro-pyridin-4-yl]-benzonitrile], the pIC50 is 5.30 to 6.30.

With `Cn1cc(-c2cnn(-c3ccccc3C#N)c2)c(-c2ccn(C3CC3)c(=O)c2)cc1=O` [Example 222, 2-[4-(1′-Cyclopropyl-1-methyl-6,2′-dioxo-1,6,1′,2′-tetrahydro-[4,4′]bipyridinyl-3-yl)-pyrazol-1-yl]-benzonitrile], under setting [1], the pIC50 is over 6.30.

With `CCc1ccc(-c2cc(=O)n(C)cc2-c2cnn(-c3ccccc3C#N)c2)cn1` [Example 373, 2-(4-(6-ethyl-1-methyl-6′-oxo-1′,6′-dihydro-[3,4′-bipyridin]-3′-yl)-1H-pyrazol-1-yl)benzonitrile], the pIC50 under setting [1] is over 6.30.

As for `CC(c1cccc(C#N)c1)n1cc(-c2ccc(=O)n(C)c2)cn1` (stereo not shown) [Example 16, 3-(1-(4-(1-methyl-6-oxo-1,6-dihydropyridin-3-yl)-1H-pyrazol-1-yl)ethyl)benzonitrile], the pIC50 under setting [1] was 5.30 to 6.30. On the same count and under the same terms, next, `CCOc1cc(=O)n(C)cc1-c1cnn(-c2cc(OC3CC3)ccc2C#N)c1` [Example 184, 4-Cyclopropoxy-2-[4-(4-ethoxy-1-methyl-6-oxo-1,6-dihydro-pyridin-3-yl)-pyrazol-1-yl]-benzonitrile]: over 6.30. In the case of `Cc1cc(=O)n(C)cc1-c1cnn(Cc2ccccc2)c1` [Example 7, 5-(1-benzyl-1H-pyrazol-4-yl)-1,4-dimethyl-pyridin-2(1H)-one], under setting [1], the pIC50 is over 6.30.

For the compound `CC(c1ccccc1)n1cc(-c2cn(C)c(=O)cc2OC2CC2)cn1` (stereo not shown) [Example 59, 4-cyclopropoxy-1-methyl-5-(1-(1-phenylethyl)-1H-pyrazol-4-yl) pyridin-2(1H)-one], under setting [1], the pIC50 was over 6.30.

In the case of `Cn1cc(-c2cc(=O)n(C)cc2-c2cnn(-c3ccccc3C(=O)NC#N)c2)cn1` [Example 289, N-cyano-2-(4-(1-methyl-4-(1-methyl-1H-pyrazol-4-yl)-6-oxo-1,6-dihydropyridin-3-yl)-1H-pyrazol-1-yl)benzamide], the negative-log IC50 (pIC50) under setting [1] was over 6.30. Turning to `COC1CN(c2cc(=O)n(C)cc2-c2cnn(C(C)c3ccccc3)c2)C1` (stereo not shown) [Example 58, 4-(3-methoxyazetidin-1-yl)-1-methyl-5-(1-(1-phenylethyl)-1H-pyrazol-4-yl)pyridin-2(1H)-one], the pIC50 under setting [1] is 5.30 to 6.30.

For `CCOc1ccc(-c2cc(=O)n(C)cc2-c2cnn(-c3cc(OC)ccc3C#N)c2)cn1` [Example 265, 2-[4-(6-Ethoxy-1′-methyl-6′-oxo-1′,6′-dihydro-[3,4′]bipyridinyl-3′-yl)-pyrazol-1-yl]-4-methoxy-benzonitrile], the pIC50 under setting [1] is over 6.30. The same measure, in the same setting: under `Cc1ccccc1C(C)n1cc(-c2ccc(=O)n(C)c2)cn1` (stereo not shown) [Example 22, 1-methyl-5-(1-(1-(o-tolyl)ethyl)-1H-pyrazol-4-yl)pyridin-2(1H)-one] stands over 6.30; under `CCOc1cc(=O)n(C)cc1-c1cnn(-c2ccccc2Cl)c1` [Example 97, 5-(1-(2-chloro-phenyl)-1H-pyrazol-4-yl)-4-ethoxy-1-methyl-pyridin-2(1H)-one], over 6.30; under `CNc1cc(=O)n(C)cc1-c1cnn(C(C)c2ccccc2)c1` (stereo not shown) [Example 42, 1-methyl-4-(methyl-amino)-5-(1-(1-phenylethyl)-1H-pyrazol-1-yl) pyridin-2(1H)-one], over 6.30. Consider `CC(C)Oc1ccc(-c2cc(=O)n(C)cc2-c2cnn(-c3cccc(F)c3C#N)c2)cn1` [Example 358, 2-fluoro-6-[4-[4-(6-isopropoxy-3-pyridyl)-1-methyl-6-oxo-3-pyridyl]pyrazol-1-yl]benzonitrile], for which the pIC50 under setting [1] was over 6.30.

Turning to `Cn1cc(-c2cnn(-c3ccccc3C(=O)O)c2)c(-c2cccnc2)cc1=O` [Example 227, 2-[4-(1′-Methyl-6′-oxo-1′,6′-dihydro-[3,4′]bipyridinyl-3′-yl)-pyrazol-1-yl]-benzoic acid], the pIC50 under setting [1] was over 6.30. The same measure, in the same setting: under `CC(c1ccccc1)n1cc(-c2cn(C)c(=O)cc2OCc2ccn(C)n2)cn1` (stereo not shown) [Example 44, 1-methyl-4-((1-methyl-1H-pyrazol-3-yl)methoxy)-5-(1-(1-phenyl-ethyl)-1H-pyrazol-4-yl) pyridin-2(1H)-one] stands over 6.30.

`CCSc1cc(=O)n(C)cc1-c1cnn(Cc2ccccc2)c1` [Example 168, 5-(1-Benzyl-1H-pyrazol-4-yl)-4-ethylsulfanyl-1-methyl-1H-pyridin-2-one]: the pIC50 under setting [1] was over 6.30. Still for that read-out and setting: under `Cn1ccc(-c2cc(=O)n(C)cc2-c2cnn(-c3ccccc3C(=O)NC#N)c2)cc1=O` [Example 293, N-cyano-2-(4-(1,1′-dimethyl-2′,6-dioxo-1,1′,2′,6-tetrahydro-[4,4′-bipyridin]-3-yl)-1H-pyrazol-1-yl)benzamide] stands over 6.30; under `CCOc1cc(=O)n(C)cc1-c1cnn(C(C)c2ccc(-c3cnn(C)c3)cc2)c1` (stereo not shown) [Example 100, 4-ethoxy-1-methyl-5-(1-{1-[4-(1-methyl-1H-pyrazol-4-yl)-phenyl]-ethyl}-1H-pyrazol-4-yl)-1H-pyridin-2-one], over 6.30; under `CCOc1cc(=O)n(C)cc1-c1cnn(-c2cccc(C)c2C#N)c1` [Example 179, 2-[4-(4-Ethoxy-1-methyl-6-oxo-1,6-dihydro-pyridin-3-yl)-pyrazol-1-yl]-6-methyl-benzonitrile], over 6.30. For the compound `Cn1cc(-c2cnn(C3CCN(S(C)(=O)=O)CC3)c2)c(-c2ccccc2)cc1=O` [Example 127, 1-methyl-5-(1-(1-(methyl-sulfonyl)-piperidin-4-yl)-1H-pyrazol-4-yl)-4-phenylpyridin-2(1H)-one], the pIC50 under setting [1] is over 6.30.

For the compound `CC(c1ccncc1)n1cc(-c2ccc(=O)n(C)c2)cn1` (stereo not shown) [Example 29, 1-methyl-5-(1-(1-(pyridin-4-yl)ethyl)-1H-pyrazol-4-yl)pyridin-2(1H)-one], the negative-log IC50 (pIC50) under setting [1] was 5.30 to 6.30. For `Cc1c(-c2cnn(C(C)c3ccccc3)c2)cn(C)c(=O)c1C` (stereo not shown) [Example 30, 1,3,4-trimethyl-5-(1-(1-phenylethyl)-1H-pyrazol-4-yl)pyridin-2(1H)-one], the pIC50 under setting [1] was over 6.30. The same measure, in the same setting: next, `CCn1ccc(-c2cc(=O)n(C)cc2-c2cnn(-c3cccc(C4CC4)c3C#N)c2)cc1=O` [Example 386, 2-cyclopropyl-6-[4-[4-(1-ethyl-2-oxo-4-pyridyl)-1-methyl-6-oxo-3-pyridyl]pyrazol-1-yl]benzonitrile]: over 6.30.

As for `CCc1ncc(-c2cc(=O)n(C)cc2-c2cnn(-c3cccc(Cl)c3C#N)c2)cn1` [Example 280, 2-chloro-6-(4-(4-(2-ethylpyrimidin-5-yl)-1-methyl-6-oxo-1,6-dihydropyridin-3-yl)-1H-pyrazol-1-yl)benzonitrile], under setting [1], the negative-log IC50 (pIC50) is over 6.30. As for `Cn1cc(-c2cnn(-c3ccccc3C(=O)NS(C)(=O)=O)c2)c(C2CC2)cc1=O` [Example 302, N-{2-[4-(4-Cyclopropyl-1-methyl-6-oxo-1,6-dihydro-pyridin-3-yl)-pyrazol-1-yl]-benzoyl}-methanesulfonamide], the pIC50 under setting [1] was over 6.30. On the same count and under the same terms, next, `COc1ncc(-c2cc(=O)n(C)cc2-c2cnn(-c3ccccc3F)c2)cn1` [Example 320, 5-(1-(2-fluorophenyl)-1H-pyrazol-4-yl)-4-(2-methoxypyrimidin-5-yl)-1-methylpyridin-2(1H)-one]: over 6.30; `CC(c1ccccc1)n1cc(-c2cn(C)c(=O)cc2-c2ccn(C)c(=O)c2)cn1` (stereo not shown) [Example 310, 1,1′-dimethyl-5-(1-(1-phenylethyl)-1H-pyrazol-4-yl)-[4,4′-bipyridine]-2,2′(1H,1′H)-dione]: over 6.30; `Cn1cc(-c2cnn(Cc3ccccc3)c2)c(N)cc1=O` [Example 200, 4-amino-5-(1-benzyl-1H-pyrazol-4-yl)-1-methylpyridin-2(1H)-one]: 5.30 to 6.30. The same measure, in the same setting: next, `Cn1cc(-c2cc(=O)n(C)cc2-c2cnn(-c3ccccc3C#N)c2)ccc1=O` [Example 209, 2-[4-(1,1′-Dimethyl-6,6′-dioxo-1,6,1′,6′-tetrahydro-[3,4′]bipyridinyl-3′-yl)-pyrazol-1-yl]-benzonitrile]: over 6.30.
